Test results taken from the supplement of paper PMC4858399.
Structures can show the parent of a compound that is named as a salt.

Experiments:
[1] = system: Caenorhabditis elegans N2; test: lowest effective concentration for larval growth inhibition (size below effect threshold); higher = less potent; conditions: exposure time 48 h
Method in brief: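 Log-transformed well means of per-worm extinction, read as size on a Biosort, came from 50 C. elegans N2 L1 larvae per 96-well grown 48 h at 20°C in K-medium with killed bacteria, 1% DMSO and 0.5 to 200 µM chemical. The lowest effective concentration is the first dose at which the plate-adjusted mean size is below the threshold and stays below it at every higher dose. The threshold is 5.665.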

[2] = system: Caenorhabditis elegans N2; test: mean nematode size ln(EXT) after 48 h, plate-adjusted (DMSO control set to 6) (ln(EXT), control-adjusted); higher = larger nematodes / less growth inhibition; conditions: exposure time 48 h
Method in brief: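 A growth model removed debris from Biosort extinction readings taken on each worm. These worms were synchronised C. elegans N2 L1 larvae, 50 per well in 4–6 wells per treatment, grown for 48 h at 20°C in K-medium with killed OP50, 1% DMSO and 0.5–200 µM chemical. Readings were natural-logged and averaged by well to give mean size. On each plate, the vehicle control mean was subtracted and 6 was added.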

SMILES	lowest effective concentration [1]	mean nematode size ln(EXT) (ln) ([2]; 0.5 µM)	mean nematode size ln(EXT) (ln) ([2]; 1 µM)	mean nematode size ln(EXT) (ln) ([2]; 5 µM)	mean nematode size ln(EXT) (ln) ([2]; 10 µM)	mean nematode size ln(EXT) (ln) ([2]; 50 µM)	mean nematode size ln(EXT) (ln) ([2]; 100 µM)	mean nematode size ln(EXT) (ln) ([2]; 200 µM)
Oc1ccc(O)cc1 [Hydroquinone]	> 200 µM	5.99	6.02	6.04	6.02	6.1	6.09	5.72
NC(=O)NO [Hydroxyurea]	> 200 µM	6	5.97	5.92	5.93	5.75	5.63	5.73
CCC(C)OC(=O)N1CCCCC1CCO (stereo not drawn) [Icaridin]	> 200 µM	5.45	5.77	5.76	6.03	5.43	5.79	5.97
COCc1cnc(C2=NC(C)(C(C)C)C(=O)N2)c(C(=O)O)c1 (stereo not drawn) [Imazamox]	> 200 µM	5.93	5.93	5.91	5.96	6	6.01	5.83
CC(C)C1(C)N=C(c2ncccc2C(=O)O)NC1=O (stereo not drawn) [Imazapyr]	> 200 µM	5.84	5.98	6.01	5.97	5.9	5.84	5.77
CC(C)C1(C)N=C(c2nc3ccccc3cc2C(=O)O)NC1=O (stereo not drawn) [Imazaquin]	> 200 µM	6.13	6.14	6.13	6.33	6.08	6.06	6.1
CCc1cnc(C2=NC(C)(C(C)C)C(=O)N2)c(C(=O)O)c1 (stereo not drawn) [Imazethapyr]	> 200 µM	5.99	5.93	6.06	6.15	6.12	6.24	6.05
[As]#[In] [Indium arsenide]	> 200 µM	5.78	5.76	5.77	5.75	5.54	5.53	5.86
COc1ccc2c(c1)c(CC(=O)O)c(C)n2C(=O)c1ccc(Cl)cc1 [Indomethacin]	> 200 µM	6.03	5.93	5.95	5.96	5.93	5.93	5.83
COC(=O)c1ccc(I)cc1S(=O)(=O)NC(=O)Nc1nc(C)nc(OC)n1 [Iodosulfuron-methyl-sodium]	> 200 µM	6.1	6.11	5.88	6.04	6.15	6.07	5.89
CC(=O)OCCC(C)C [Isoamyl acetate]	> 200 µM	5.95	5.84	5.89	5.79	5.86	5.83	5.75
CCCC(=O)OCCC(C)C [Isoamyl butyrate]	> 200 µM	5.92	5.91	5.91	6.05	5.81	5.9	6.13
C/C=C\c1ccc(O)c(OC)c1 [Isoeugenol]	> 200 µM	5.87	5.92	5.95	6.01	5.87	5.85	5.88
NNC(=O)c1ccncc1 [Isoniazid]	200 µM	5.78	5.82	5.77	5.64	5.82	5.88	5.65
CC1=CC(=O)CC(C)(C)C1 [Isophorone]	> 200 µM	5.84	5.72	5.76	5.71	5.75	5.94	5.79
CC(C)NCC(O)c1ccc(O)c(O)c1 (stereo not drawn) [Isoprenaline hydrochloride]	> 200 µM	5.94	5.97	5.91	5.94	5.95	5.54	5.84
CCC(C)(CC)c1cc(NC(=O)c2c(OC)cccc2OC)on1 [Isoxaben]	> 200 µM	5.88	5.93	6.01	6.02	5.92	6.03	5.93
N[C@@H](Cc1c[nH]c2ccccc12)C(=O)O [L-Tryptophan]	> 200 µM	5.91	5.87	5.89	5.86	5.85	5.96	5.7
Cc1cc(Cl)ccc1OCC(=O)O [MCPA]	> 200 µM	5.99	6.05	6.18	6.02	6.09	6.02	5.9

SMILES	lowest effective concentration [1]	mean nematode size ln(EXT) (ln) ([2]; 0.5 µM)	mean nematode size ln(EXT) (ln) ([2]; 1 µM)	mean nematode size ln(EXT) (ln) ([2]; 5 µM)	mean nematode size ln(EXT) (ln) ([2]; 10 µM)	mean nematode size ln(EXT) (ln) ([2]; 50 µM)	mean nematode size ln(EXT) (ln) ([2]; 100 µM)	mean nematode size ln(EXT) (ln) ([2]; 200 µM)
CCOC(=O)CC(SP(=O)(OC)OC)C(=O)OCC (stereo not drawn) [Malaoxon]	> 200 µM	5.9	5.85	6.21	5.99	5.89	5.94	5.83
O=c1ccc(=O)[nH][nH]1 [Maleic hydrazide]	> 200 µM	6.04	5.94	5.94	5.96	5.96	5.9	6.03
Cc1occc(=O)c1O [Maltol]	> 200 µM	6.08	5.97	6.02	6.07	6	5.93	5.76
C[N+]1(C)CCCCC1 [Mepiquat chloride]	> 200 µM	5.73	5.8	6	5.91	5.96	6.13	5.9
COCC(=O)N(c1c(C)cccc1C)C(C)C(=O)OC (stereo not drawn) [Metalaxyl]	> 200 µM	6.15	6.19	6.16	6	6.14	6.18	5.98
C=C(C)C(N)=O [Methacrylamide]	> 200 µM	6.05	5.91	5.89	5.82	6.01	5.82	5.86
COP(N)(=O)SC (stereo not drawn) [Methamidophos]	> 200 µM	5.74	5.85	5.85	5.88	5.89	5.93	5.87
Cn1ccnc1S [Methimazole]	> 200 µM	5.77	5.89	5.88	5.83	5.91	5.9	5.95
CN(Cc1cnc2nc(N)nc(N)c2n1)c1ccc(C(=O)N[C@@H](CCC(=O)O)C(=O)O)cc1 [Methotrexate]	> 200 µM	5.83	5.86	5.81	5.85	5.84	5.82	5.75
COCCO [Methyl cellusolve]	> 200 µM	5.86	5.94	6.08	6.07	5.99	6.03	6.06
COC(=O)c1ccccc1C(=O)O [Methyl hydrogen phthalate]	> 200 µM	6.07	6.01	6.1	6.07	6.14	6.14	5.95
COS(C)(=O)=O [Methyl methanesulfonate]	> 200 µM	5.92	5.9	5.9	5.87	5.81	5.52	5.89
C=CCc1ccc(OC)c(OC)c1 [Methyleugenol]	> 200 µM	6	5.97	6.02	5.98	5.99	5.99	5.7
COC(=O)c1ccc(O)cc1 [Methylparaben]	> 200 µM	6.02	5.99	5.95	6.11	6.02	6.06	5.7
Cc1cc(=O)[nH]c(=S)[nH]1 [Methylthiouracil]	> 200 µM	6.01	5.97	5.94	5.97	6	6.12	5.98
CSc1nnc(C(C)(C)C)c(=O)n1N [Metribuzin]	> 200 µM	5.83	5.88	5.91	5.85	5.84	5.87	5.78
CCCCOC(=O)c1ccccc1C(=O)O [Monobutyl phthalate]	> 200 µM	6.02	5.99	6.01	5.99	5.97	5.95	5.97
CNC(=O)/C=C(\C)OP(=O)(OC)OC [Monocrotophos]	> 200 µM	5.81	5.76	5.74	5.78	5.79	5.77	6.07
C=CC(=C)CCC=C(C)C [Myrcene]	> 200 µM	5.79	5.75	5.76	5.75	5.73	5.71	5.71

SMILES	lowest effective concentration [1]	mean nematode size ln(EXT) (ln) ([2]; 0.5 µM)	mean nematode size ln(EXT) (ln) ([2]; 1 µM)	mean nematode size ln(EXT) (ln) ([2]; 5 µM)	mean nematode size ln(EXT) (ln) ([2]; 10 µM)	mean nematode size ln(EXT) (ln) ([2]; 50 µM)	mean nematode size ln(EXT) (ln) ([2]; 100 µM)	mean nematode size ln(EXT) (ln) ([2]; 200 µM)
C=CC(=O)NCNC(=O)C=C [N,N'-Methylenebis(acrylamide)]	> 200 µM	6.06	6.06	6.06	6.01	6	6.05	5.83
Cc1ccc(N(C)C)cc1 [N,N,4-Trimethylaniline]	> 200 µM	5.82	5.87	5.94	5.79	5.76	5.72	5.73
CC(O)CN(CCN(CC(C)O)CC(C)O)CC(C)O (stereo not drawn) [N,N,N',N'-Tetrakis(2-Hydroxypropyl)ethylenediamine]	50 µM	5.67	5.6	5.71	5.67	5.01	5.4	5.66
CCN(CC)CCO [N,N-Diethylethanolamine]	> 200 µM	5.86	5.89	5.91	5.81	5.83	5.76	5.78
CN(C)c1ccccc1 [N,N-Dimethylaniline]	> 200 µM	5.97	6.02	6.03	6.01	6.08	6.02	5.73
CN(C)C=O [N,N-Dimethylformamide]	> 200 µM	5.86	5.92	5.88	5.84	6.01	5.79	5.78
CCCCCCOC(=O)CC(CC(=O)OCCCCCC)(OC(=O)CCC)C(=O)OCCCCCC [N-Butyryl tri-N-hexyl citrate]	> 200 µM	5.93	5.96	5.91	5.98	6.15	5.75	5.83
CCNc1ccccc1 [N-Ethyl aniline]	> 200 µM	5.68	5.67	5.68	5.67	5.52	5.56	5.67
CCNc1cccc(C)c1 [N-Ethyl-3-methylaniline]	200 µM	5.68	5.72	5.59	5.59	5.63	5.72	5.63
CN1CCCC1=O [N-Methyl-2-pyrrolidone]	> 200 µM	5.94	5.92	5.89	5.81	5.8	5.89	5.84
CNC(C)=O [N-Methylacetamide]	> 200 µM	6.09	6.1	6.07	6.02	6.03	6.07	5.84
CCCCN(CCCC)N=O [N-Nitrosodi-N-butylamine]	> 200 µM	6.12	6.07	5.93	5.97	5.99	6.08	5.95
CCCN(CCC)N=O [N-Nitrosodipropylamine]	> 200 µM	5.88	5.93	5.92	5.84	5.87	5.72	5.97
C=CN1CCCC1=O [N-Vinyl-2-pyrrolidone]	> 200 µM	6.07	5.85	5.84	5.87	5.89	4.87	5.82
CCCCCCCCC(=O)O [Nonanoic acid]	> 200 µM	5.86	5.94	5.94	5.91	5.89	5.93	5.83
CCCCCCCC=O [Octanal]	> 200 µM	6	5.82	5.94	5.77	5.88	5.84	5.77
CCCCCCCC(=O)O [Octanoic acid]	> 200 µM	6	5.81	5.92	5.8	5.89	5.84	5.78
CNC(=O)O/N=C(\SC)C(=O)N(C)C [Oxamyl]	> 200 µM	6.13	6.48	6.09	6.33	6.42	6.43	5.75
